# From ChEMBL document CHEMBL1201862, “PubChem BioAssay data set” (2004)
#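 The compound was tested at five concentrations on cells cultured in 96-well plates, with a 48-hour exposure period. GI50: concentration for 50% inhibition of growth.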 Activity calls are given as the source filed them. Rule as the data show it: active = GI50 up to about 1.1 µM and inactive = higher.
# Columns and labels:
# Assay in all cases: NCI-60 cell line screen, 48 h
# SF-295 = test system: SF-295
# SK-MEL-28 = test system: SK-MEL-28
# CAKI-1 = test system: CAKI-1
# NCI-H23 = test system: NCI-H23
# SN12C = test system: SN12C
# PC-3 = test system: PC-3
# BT-549 = test system: BT-549
# SF-268 = test system: SF-268
# HCT-116 = test system: HCT-116
# U-251 = test system: U-251
# HCT-15 = test system: HCT-15
# Malme-3M = test system: Malme-3M
# HL-60 = test system: HL-60
# OVCAR-4 = test system: OVCAR-4
# UACC-62 = test system: UACC-62
# A498 = test system: A498
# MCF7 = test system: MCF7
# HCC 2998 = test system: HCC 2998
# RXF 393 = test system: RXF 393
SMILES,GI50 (SF-295),GI50 (SK-MEL-28),GI50 (CAKI-1),GI50 (NCI-H23),GI50 (SN12C),GI50 (PC-3),GI50 (BT-549),GI50 (SF-268),GI50 (HCT-116),GI50 (U-251),GI50 (HCT-15),GI50 (Malme-3M),GI50 (HL-60),GI50 (OVCAR-4),GI50 (UACC-62),GI50 (A498),GI50 (MCF7),GI50 (HCC 2998),GI50 (RXF 393)
CC1=C2C(=O)NN=C2CCN1c1ccc(Br)cc1,> 100 µM (inactive),> 100 µM (inactive),> 100 µM (inactive),> 100 µM (inactive),> 100 µM (inactive),> 100 µM (inactive),3.14 µM (inactive),> 100 µM (inactive),> 100 µM (inactive),> 100 µM (inactive),93.5 µM,35.3 µM (inactive),41.3 µM (inactive),> 100 µM (inactive),> 100 µM (inactive),68.7 µM (inactive),> 100 µM (inactive),,
c1ccc(/C(=N/Nc2nc3ccccc3s2)C2CCCCC2)nc1,15.8 µM (inactive),10.4 µM (inactive),6.95 µM (inactive),6.4 µM (inactive),9.44 µM (inactive),6.11 µM (inactive),18.6 µM (inactive),10.6 µM (inactive),0.296 µM (active),11.3 µM (inactive),2.77 µM,4.13 µM (inactive),,9.79 µM (inactive),12.8 µM (inactive),16.6 µM (inactive),1.23 µM (inactive),< 0.01 µM (active),11.7 µM (inactive)
O=[N+]([O-])/C(C(Cl)=C(Cl)Cl)=C(\N1CCCCC1)n1nnc2ccccc21,17.5 µM (inactive),22.3 µM (inactive),15.3 µM (inactive),19.1 µM (inactive),18.3 µM (inactive),17.6 µM (inactive),23.3 µM (inactive),20.8 µM (inactive),18.9 µM (inactive),16.9 µM (inactive),17.8 µM,21.6 µM (inactive),,47.1 µM (inactive),18.6 µM (inactive),19.2 µM (inactive),25.4 µM (inactive),,16.3 µM (inactive)
CN(/N=C/c1ccc(Cl)c(Cl)c1)C1=NCCCCN1,34.4 µM (inactive),,23.9 µM (inactive),55.5 µM (inactive),42 µM (inactive),25.3 µM (inactive),31 µM (inactive),51.2 µM (inactive),24.4 µM (inactive),26.6 µM (inactive),26.2 µM,17.8 µM (inactive),19.3 µM (inactive),44.1 µM (inactive),23 µM (inactive),18.2 µM (inactive),19.8 µM (inactive),24.9 µM (inactive),
CN(C)Cc1cc(C(=O)/C=C/c2ccc(O)cc2)cc(CN(C)C)c1O,86.3 µM (inactive),25.9 µM (inactive),28.8 µM (inactive),79.6 µM (inactive),23 µM (inactive),47.4 µM (inactive),79.4 µM (inactive),72.4 µM (inactive),38.2 µM (inactive),16 µM (inactive),44.5 µM,,19.1 µM (inactive),,36.6 µM (inactive),31.8 µM (inactive),43.2 µM (inactive),79.4 µM (inactive),59.8 µM (inactive)
CN1C/C(=C\c2cccs2)C(O)/C(=C/c2cccs2)C1 (stereo not drawn),> 100 µM (inactive),> 100 µM (inactive),97.5 µM (inactive),> 100 µM (inactive),74.5 µM (inactive),> 100 µM (inactive),> 100 µM (inactive),> 100 µM (inactive),72.4 µM (inactive),> 100 µM (inactive),> 100 µM,50.1 µM (inactive),,35.5 µM (inactive),> 100 µM (inactive),> 100 µM (inactive),48.5 µM (inactive),41.1 µM (inactive),> 100 µM (inactive)
CCOC(=O)c1nnsc1NC(=O)NCCCCCCn1c(=O)n(CCCCCCNC(=O)Nc2snnc2C(=O)OCC)c(=O)n(CCCCCCNC(=O)Nc2snnc2C(=O)OCC)c1=O,16.9 µM (inactive),,76.9 µM (inactive),24.9 µM (inactive),33.3 µM (inactive),50.9 µM (inactive),33 µM (inactive),19.8 µM (inactive),38.8 µM (inactive),19.3 µM (inactive),> 100 µM,25.1 µM (inactive),,80 µM (inactive),17.3 µM (inactive),67.1 µM (inactive),97.3 µM (inactive),39.5 µM (inactive),13.5 µM (inactive)
CCC/N=C1\S/C(=C/c2ccc(OC)c(OC)c2)C(=O)N1c1ccccc1,11.3 µM (inactive),> 100 µM (inactive),44.5 µM (inactive),76.7 µM (inactive),54.8 µM (inactive),43.8 µM (inactive),74.8 µM (inactive),15.1 µM (inactive),24 µM (inactive),12.6 µM (inactive),> 100 µM,> 100 µM (inactive),59.8 µM (inactive),16 µM (inactive),37 µM (inactive),21.5 µM (inactive),> 100 µM (inactive),> 100 µM (inactive),
Cc1ccc(Nc2nc(C)c(C(=O)CC(=O)C(=O)Nc3c(C)cccc3C(C)(C)C)s2)cc1,> 100 µM (inactive),,> 100 µM (inactive),> 100 µM (inactive),> 100 µM (inactive),> 100 µM (inactive),> 100 µM (inactive),> 100 µM (inactive),> 100 µM (inactive),71.8 µM (inactive),> 100 µM,,> 100 µM (inactive),> 100 µM (inactive),> 100 µM (inactive),> 100 µM (inactive),> 100 µM (inactive),> 100 µM (inactive),> 100 µM (inactive)
Nc1ccc(S(=O)(=O)NCc2nccs2)cc1,32 µM (inactive),18.1 µM (inactive),28.4 µM (inactive),22.4 µM (inactive),19.2 µM (inactive),30.1 µM (inactive),20.1 µM (inactive),18.6 µM (inactive),19 µM (inactive),21.8 µM (inactive),26.7 µM,,20.4 µM (inactive),29.3 µM (inactive),17.5 µM (inactive),17.7 µM (inactive),23.4 µM (inactive),,29.9 µM (inactive)
CSc1ccc(/C=C/C(=O)c2nc3ccccc3[nH]2)cc1,24.3 µM (inactive),31.6 µM (inactive),2.26 µM (inactive),23.6 µM (inactive),29.2 µM (inactive),12.3 µM (inactive),14.8 µM (inactive),26.9 µM (inactive),12.7 µM (inactive),,11.8 µM,44.7 µM (inactive),12.1 µM (inactive),14.1 µM (inactive),14.2 µM (inactive),13.6 µM (inactive),2.64 µM (inactive),10.7 µM (inactive),
O=c1[nH]c(=O)n(C2COC(CO)C2O)cc1F (stereo not drawn),30.5 µM (inactive),26.7 µM (inactive),> 100 µM (inactive),15.1 µM (inactive),28.3 µM (inactive),36.1 µM (inactive),32.7 µM (inactive),64.3 µM (inactive),9.98 µM (inactive),72.9 µM (inactive),16.4 µM,9.29 µM (inactive),,> 100 µM (inactive),22.1 µM (inactive),5.28 µM (inactive),8.41 µM (inactive),8.73 µM (inactive),2.94 µM (inactive)
